How the values were obtained:
[1] = 308.15 K, 101.33 kPa, Liquid; for speed of sound: Pulse-echo method
[2] = xn = mol fraction of the nth substance listed; details: 308.15 K, 101 kPa, Liquid; for speed of sound: Pulse-echo method

CC(O)CCO (stereo not drawn) [1,3-butanediol]
[1]
Details	mass density [kg/m3]	speed of sound [m/s]	viscosity [mPa·s]
–	991.28	1496	54.24

CC(O)C(C)O (stereo not drawn) [2,3-butanediol]
[1]
Details	mass density [kg/m3]	speed of sound [m/s]	viscosity [mPa·s]
–	990.72	1456.6	51.38

OCCCCO [1,4-butanediol]
[1]
Details	mass density [kg/m3]	speed of sound [m/s]	viscosity [mPa·s]
–	1003.95	1577.8	47.38

CC(O)C(C)O (stereo not drawn) [2,3-butanediol] + O=C1CCCN1
[2]
Details	excess molar volume [m3/mol]	speed of sound [m/s]	viscosity [mPa·s]
x2 = 0.0199	1.9e-08	–	–
x2 = 0.0255	–	1458.7	46.85
x2 = 0.0339	3.3e-08	–	–
x2 = 0.0483	4.5e-08	–	–
x2 = 0.0507	–	1460.7	41.26
x2 = 0.0634	5.4e-08	–	–
x2 = 0.0737	6e-08	–	–
x2 = 0.0765	–	1463	39.43
x2 = 0.0885	7.5e-08	–	–
x2 = 0.1001	–	1466.3	37.32
x2 = 0.1008	8.2e-08	–	–
x2 = 0.1118	8.7e-08	–	–
x2 = 0.118	9.3e-08	–	–
x2 = 0.1313	9.9e-08	–	–
x2 = 0.1447	1.06e-07	–	–
x2 = 0.1489	–	1470.5	32.26
x2 = 0.1571	1.12e-07	–	–
x2 = 0.1702	1.17e-07	–	–
x2 = 0.185	1.29e-07	–	–
x2 = 0.1941	–	1475.2	28.87
x2 = 0.2191	1.39e-07	–	–
x2 = 0.2418	1.48e-07	–	–
x2 = 0.2675	1.54e-07	–	–
x2 = 0.2854	1.59e-07	–	–
x2 = 0.2955	–	1488.2	23.79
x2 = 0.3058	1.63e-07	–	–
x2 = 0.3226	1.67e-07	–	–
x2 = 0.3312	1.68e-07	–	–
x2 = 0.3459	1.71e-07	–	–
x2 = 0.3589	1.72e-07	–	–
x2 = 0.383	1.72e-07	–	–
x2 = 0.3899	–	1500.7	19.82
x2 = 0.3973	1.72e-07	–	–
x2 = 0.4043	1.73e-07	–	–
x2 = 0.4156	1.72e-07	–	–
x2 = 0.4506	1.71e-07	–	–
x2 = 0.4667	1.7e-07	–	–
x2 = 0.4926	1.69e-07	–	–
x2 = 0.5097	1.7e-07	–	–
x2 = 0.5261	1.7e-07	–	–
x2 = 0.5294	–	1520.3	16.06
x2 = 0.5431	1.67e-07	–	–
x2 = 0.5651	1.68e-07	–	–
x2 = 0.5844	1.65e-07	–	–
x2 = 0.5898	–	1529.2	14.65
x2 = 0.6052	1.6e-07	–	–
x2 = 0.6266	1.58e-07	–	–
x2 = 0.6501	1.52e-07	–	–
x2 = 0.6693	1.51e-07	–	–
x2 = 0.6894	1.45e-07	–	–
x2 = 0.6978	–	1546.9	12.54
x2 = 0.8089	–	1565.1	11.22
x2 = 0.8587	–	1573.7	10.53
x2 = 0.9067	–	1582	9.623
x2 = 0.9497	–	1590.4	9.337
x2 = 0.9702	–	1594.2	9.114

CCC(O)CO (stereo not drawn) [1,2-butanediol] + O=C1CCCN1
[2]
Details	excess molar volume [m3/mol]	speed of sound [m/s]	viscosity [mPa·s]
x2 = 0.027	–	1426.7	28.33
x2 = 0.0473	1.3e-08	–	–
x2 = 0.0512	–	1430.5	27.12
x2 = 0.0621	1.8e-08	–	–
x2 = 0.0786	2.4e-08	–	–
x2 = 0.0797	–	1435.2	25.57
x2 = 0.0977	–	1438.2	24.38
x2 = 0.0991	2.8e-08	–	–
x2 = 0.113	3.2e-08	–	–
x2 = 0.1263	3.6e-08	–	–
x2 = 0.142	4e-08	–	–
x2 = 0.1464	–	1446.3	22.32
x2 = 0.162	4.4e-08	–	–
x2 = 0.1937	–	1454.3	20.82
x2 = 0.1973	4.7e-08	–	–
x2 = 0.2456	5e-08	–	–
x2 = 0.2794	5.2e-08	–	–
x2 = 0.3017	–	1472.5	17.81
x2 = 0.3213	5.3e-08	–	–
x2 = 0.3797	5.2e-08	–	–
x2 = 0.4034	5.1e-08	–	–
x2 = 0.4061	–	1490.3	15.69
x2 = 0.4544	5e-08	–	–
x2 = 0.4753	4.9e-08	–	–
x2 = 0.5014	4.7e-08	–	–
x2 = 0.5017	–	1507.5	14.09
x2 = 0.5226	4.4e-08	–	–
x2 = 0.5643	4.1e-08	–	–
x2 = 0.5966	3.8e-08	–	–
x2 = 0.5983	–	1524.7	12.68
x2 = 0.6244	3.6e-08	–	–
x2 = 0.6571	3.3e-08	–	–
x2 = 0.688	2.9e-08	–	–
x2 = 0.7038	–	1543.6	11.52
x2 = 0.71	2.6e-08	–	–
x2 = 0.7348	2.4e-08	–	–
x2 = 0.7619	2e-08	–	–
x2 = 0.7843	1.7e-08	–	–
x2 = 0.798	–	1561	10.78
x2 = 0.8061	1.4e-08	–	–
x2 = 0.8374	1.2e-08	–	–
x2 = 0.8484	–	1570.6	10.26
x2 = 0.8607	1.1e-08	–	–
x2 = 0.8753	1e-08	–	–
x2 = 0.8878	9e-09	–	–
x2 = 0.9038	–	1580.6	9.435
x2 = 0.9039	8e-09	–	–
x2 = 0.924	7e-09	–	–
x2 = 0.9319	–	1586.6	9.291
x2 = 0.9469	6e-09	–	–
x2 = 0.9512	–	1590.1	9.015
x2 = 0.9599	5e-09	–	–
x2 = 0.9738	–	1594.7	8.969
x2 = 0.9885	3e-09	–	–
x2 = 0.9955	2e-09	–	–

Reference: the NIST ThermoML archive (doi:10.1016/j.jct.2004.11.020)
